Patent publication US7612071B2, “Compositions and methods employing aminopterin” (Syntrix Biosystems, Inc., priority 2004, dated 2009)
Where two headings read alike, the source gives them in different places.

Tests used:
[1] = Interpatient coefficient of variation of oral bioavailability; assay type: in vivo; conditions: human, plasma, 2 mg/m2; AMT 2 mg/m^2 PO, pediatric and adult patients, n=27
Protocol: The term “interpatient coefficient of variation of oral bioavailability” as used herein refers to the coefficient of variation of oral bioavailability in a population of at least two patients, wherein the oral bioavailability is determined at least once for each patient in the population. Specifically, it is the standard deviation of oral bioavailability in the population divided by the interpatient oral bioavailability, expressed as a percent. […] It is sufficient to use a representative number of patients from a particular patient population to establish the interpatient coefficient of variation of oral bioavailability for that population, where at least 5 patients will be required in order to establish the interpatient coefficient of variation of oral bioavailability of a population.
The standard deviation of oral bioavailability and interpatient oral bioavailability were determined among 27 matched patients.
Pharmacol. 10(1):36, 1982].

[2] = mice, 4 weekly ip doses (aminopterin 0.03 mg/kg, methotrexate 0.3 mg/kg)
[3] = tested on: T-lineage acute lymphoblastic leukemia (ALL); conditions: for Therapeutic Index / Toxicity Component: Antifolate dose with same toxicity as MTX at 100 mg/m^2/wk: T-lineage ALL; for Therapeutic Component: Antifolate dose / Therapeutic Component: Percentage effective (complete remission or stable disease): peripheral blasts and bone marrow infiltrates in T-lineage ALL, n=7; for Therapeutic Component: Percentage effective (complete remission or stable disease): AMT 4 mg/m^2/wk, MTX >5000 mg/m^2/wk in the same patients
Protocol: Specifically, a clinical trial was performed in human adult and pediatric patients having T-lineage acute lymphoblastic leukemia (ALL) that was refractory to therapy or that had relapsed (see Table IV). The disease manifestations that were monitored were peripheral blasts and bone marrow infiltrates. The toxicity manifestations that were monitored were mucositis, neutropenia, thrombocytopenia and myelosuppression.

In the case of `Nc1nc(N)c2nc(CNc3ccc(C(=O)N[C@@H](CCC(=O)O)C(=O)O)cc3)cnc2n1` [AMT], the Interpatient coefficient of variation of oral bioavailability [1] is reported as 42%, the “antifolate content in brain parenchyma, aminopterin arm vs methotrexate arm” value ([2]; days 1, 12 and 22) is reported as “significantly less antifolate” and the “antifolate content in liver, aminopterin vs methotrexate” value ([2]; days 1 and 22 after last dose) is reported as “no different”. For the same compound, the “Therapeutic Index” value ([3]; Mucositis vs peripheral blasts/bone marrow infiltrates) was 1, the “Toxicity Component: Antifolate dose with same toxicity as MTX at 100 mg/m^2/wk” value (shortened to “Toxicity Component: Antifolate dose”) ([3]; Mucositis) was 4 mg/m^2/wk and the “Therapeutic Index” value ([3]; Myelosuppression) was 1. For the same compound, the “Toxicity Component: Antifolate dose” value ([3]; Myelosuppression) was 4 mg/m^2/wk, the “Therapeutic Index” value ([3]; Neutropenia) was 1 and the “Toxicity Component: Antifolate dose” value ([3]; Neutropenia) was 4 mg/m^2/wk. For the same compound, the “Therapeutic Index” value ([3]; Thrombocytopenia) was 1, the “Toxicity Component: Antifolate dose” value ([3]; Thrombocytopenia) was 4 mg/m^2/wk and the “Therapeutic Component: Antifolate dose” value [3] was 4 mg/m^2/wk:. The “Therapeutic Component: Percentage effective (complete remission or stable disease)” value [3] was 43% complete, the “Therapeutic Component: Percentage effective (complete remission or stable disease)” value ([3]; listed as aminopterin) was 43% and the “Therapeutic Component: Antifolate dose” value ([3]; listed as aminopterin) was 4 mg/m^2/wk. The “Therapeutic index of aminopterin relative to corresponding therapeutic index of methotrexate” value ([3]; peripheral blasts in T-lineage ALL and mucositis) was “greater than 50 fold”.
